Blank lines part the entries; values can stand above or below the molecule they belong to.
Assays:
[1] = target: T1, kinase Axl (Homo sapiens, UniProt P30530); assay: Mobility shift assay, inhibitory activity against kinase Axl; format: biochemical; conditions: ATP at Km (81 μM), average of two independent experiments
T1 construct: purchased Carna 08-107
T1 sequence (P30530 473-894 limits assumed): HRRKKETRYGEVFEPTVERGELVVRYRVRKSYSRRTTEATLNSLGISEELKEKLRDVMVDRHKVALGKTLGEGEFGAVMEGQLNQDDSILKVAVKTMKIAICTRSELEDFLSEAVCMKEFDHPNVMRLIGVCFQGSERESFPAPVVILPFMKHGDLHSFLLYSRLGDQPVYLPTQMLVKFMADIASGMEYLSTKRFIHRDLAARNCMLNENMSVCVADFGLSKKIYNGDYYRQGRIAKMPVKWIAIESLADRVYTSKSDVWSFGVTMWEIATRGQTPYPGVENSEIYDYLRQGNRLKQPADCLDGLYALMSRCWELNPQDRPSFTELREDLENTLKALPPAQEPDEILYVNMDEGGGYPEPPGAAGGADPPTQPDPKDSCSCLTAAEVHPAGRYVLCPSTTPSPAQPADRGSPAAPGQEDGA
Method: (§1) In this test, mobility shift assay was used to test the inhibitory activity of compounds when ATP concentrations correspond to the Km of the kinases.
(§2) The concentration of test compound was 10-fold diluted from an initial concentration of 10 μM. The test result (IC50) was the average of two independent experiments.
(§3) For example, a compound at an initial concentration of 10 μM was adjusted to 500 μM with 100% DMSO, then serially diluted for 10 concentrations, and then subjected to 10-fold dilution with the buffer to prepare a diluted compound intermediate containing 10% DMSO, 5 μL of which was transferred to the 384-well plate.
(§4) 10 μL of the two enzyme solutions each was added to the 384-well plate and co-incubated with the compound for 10-15 min at room temperature.
(§5) 10 μL of the diluted substrate was added to the 384-well plate to initiate the reaction, which lasts for 1 h at 28° C.
(§6) 5) The conversion rate was read by Caliper Reader (Perkin Elmer) and the inhibition rate was calculated as the average of two tests.
(§7) 6) IC50 values were fitted with XL-fit software.

[2] = test system: EBC-1 cells; assay: EBC-1 cell proliferation, CellTiter-Glo Luminescent Cell Viability Assay; format: cell-based; conditions: Homo sapiens, 72 h incubation, read-out: IC50 (nM) against EBC-1 cells
Method: Test Example 3: Inhibitory Activity of Compounds disclosed herein against EBC-1 Cells
Test method: the inhibitory activity of the compounds against EBC-1 cell proliferation was evaluated using CellTiter-Glo® Luminescent Cell Viability Assay Kit (Promega).
Test procedures: when thawing EBC-1 cells, the cell cryopreservation tube was shaken rapidly in a water bath at 37° C. to thaw the cells in 1 min. The cell suspension after thawing was mixed with RPMI1640 culture medium containing 10% FBS and centrifuged for 5 min at 1000 rpm, and the supernatant was discarded. The cell pellet was suspended in 5 mL of complete culture medium. The suspension was placed in a cell culture flask with a bottom area of 25 cm^2, and cultured in a cell incubator at 37° C./95% humidity/5% CO2. Cell passage was performed when cell confluence reached about 80%. When the cells were passaged, the original cell suspension was directly made uniform by pipetting. 1/6 of the cell suspension was kept, added with 5 mL of new complete culture medium and then made uniform by pipetting. The cell culture flask was then placed in a cell incubator for further culturing. Cell plating was performed when the cell confluence reached about 80% again. With reference to the method for cell passage, 1/6 cell suspension was kept for further culturing when the cells were plated, and the remaining 5/6 of cell suspension was placed in a 15 mL centrifuge tube. Cell viability was detected by trypan blue exclusion using an IC1000 cell counter (Countstar) to ensure that cell viability was above 90%. Cell suspension at a density of 3.33×10^4 viable cells/mL was prepared using complete culture medium, and 90 μL of the cell suspension was added into 96-well cell culture plates, so that the cell density in the cell culture plates (day 0 plate and test compound plate) was 3000 viable cells/well. A control group that contains no cell or compound but only complete culture medium and a control group that contains no compound but cells were set. The cell plates were incubated overnight in a cell incubator. […] 10 μL of the above solution was added into a corresponding cell culture plate to ensure that the initial concentration of the compound was 10 μM, the dilution factor of adjacent concentration was 3.16, and the DMSO content in the cell culture plate was 0.1%. The cell plates were then incubated in the cell incubator for 72 h. During detection, CellTiter-Glo reagent (namely CellTiter-Glo® […] cell viability test reagent, Promega, Cat. No. G7572, Lot. No. 0000310975) was melted, and the cell plate was equilibrated at room temperature for 30 min. The cell plate was added with the CellTiter-Glo reagent at 100 μL per well, and then shaken on a QB-9001 microporous quick shaker (Kylin-Bell) for 5 min to fully lyse the cells. The cell plate was left to stand at room temperature for 20 min to stabilize luminescence signals, and the luminescence value of each well was scanned by a Spectramax M3 multi-functional microplate reader (Molecular Devices) at full wavelength.
Test samples: example compounds of the present invention and cabozantinib (positive control compound).
Data analysis: cell viability was calculated for compounds at various concentrations using the following formula:
Cell viability(%)=(Lumtest compound−Lumculture solution control)/(Lumcell control−Lumculture solution control)×100%,
where Lum refers to the luminescence value of each well of the test compound plate read by the multi-functional microplate reader.
The data were analyzed using GraphPad Prism 7.0 software, fitted with nonlinear S-curve regression to give dose-response curves, and IC50 values were calculated therefrom.

[3] = target: T2, kinase c-MET (Homo sapiens, UniProt P08581); assay: Mobility shift assay, inhibitory activity against kinase c-MET; format: biochemical; conditions: ATP at Km (35 μM), average of two independent experiments
T2 construct: purchased Carna 08-151
Method: as §1, §2, §3, §4, §5, §6, §7

T2 sequence (P08581 956-1390 limits assumed): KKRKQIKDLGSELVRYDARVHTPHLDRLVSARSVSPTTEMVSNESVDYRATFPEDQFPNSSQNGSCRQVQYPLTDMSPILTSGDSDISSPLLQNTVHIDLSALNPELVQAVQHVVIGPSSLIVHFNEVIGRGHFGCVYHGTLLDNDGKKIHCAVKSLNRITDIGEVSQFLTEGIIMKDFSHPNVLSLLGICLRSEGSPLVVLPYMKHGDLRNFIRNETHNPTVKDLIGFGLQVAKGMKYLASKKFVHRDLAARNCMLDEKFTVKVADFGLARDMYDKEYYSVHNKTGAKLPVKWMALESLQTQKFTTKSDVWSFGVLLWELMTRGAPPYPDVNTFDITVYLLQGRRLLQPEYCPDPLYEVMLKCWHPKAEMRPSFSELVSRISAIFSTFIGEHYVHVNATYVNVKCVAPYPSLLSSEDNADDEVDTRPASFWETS

SMILES: N#Cc1c(C2CC2)cc(C(=O)Nc2ccc(-c3cc(-c4cnn(C5CCNCC5)c4)cnc3N)c(F)c2)c(=O)n1-c1ccc(F)cc1 [Example 12, N-(4-(2-amino-5-(1-(piperidin-4-yl)-1H-pyrazol-4-yl)pyridin-3-yl)-3-fluorophenyl)-6-cyano-5-cyclopropyl-1-(4-fluorophenyl)-2-oxo-1,2-dihydropyridine-3-carboxamide]
IC50 [1]: 2.1 nM | IC50 [2]: 98 nM | IC50 [3]: 23 nM

SMILES: COc1cc2nccc(Oc3ccc(NC(=O)C4(C(=O)Nc5ccc(F)cc5)CC4)cc3)c2cc1OC [Cabozantinib, cabozantinib, reference compound]
IC50 [2]: 37 nM

SMILES: CC(C)n1cc(C(=O)Nc2ccc(-c3cc(-c4cnn(C5CCOCC5)c4)cnc3N)c(F)c2)c(=O)c(-c2ccc(F)cc2)c1C#N [Example 5, N-(4-(2-amino-5-(1-(tetrahydro-2H-pyran-4-yl)-1H-pyrazol-4-yl)-pyridin-3-yl)-3-fluorophenyl)-6-cyano-5-(4-fluorophenyl)-1-isopropyl-4-oxo-1,4-dihydro-pyridine-3-carboxamide]
IC50 [1]: 2.6 nM | IC50 [3]: 38 nM

SMILES: COc1cc2nccc(Oc3ccc(NC(=O)c4cc(C)c(C#N)n(-c5ccc(F)cc5)c4=O)cc3F)c2cc1OC [Example 29A, 6-cyano-N-(4-((6,7-dimethoxyquinolin-4-yl)oxy)-3-fluoro-phenyl)-1-(4-fluorophenyl)-5-methyl-2-oxo-1,2-dihydropyridine-3-carboxamide]
IC50 [1]: 3.1 nM | IC50 [2]: 82.7 nM

SMILES: N#Cc1c(C2CC2)cc(C(=O)Nc2ccc(-c3cc(-c4cnn(C5CCOCC5)c4)cnc3N)c(F)c2)c(=O)n1-c1ccc(F)cc1 [Example 16, N-(4-(2-amino-5-(1-(tetrahydro-2H-pyran-4-yl)-1H-pyrazol-4-yl)pyridin-3-yl)-3-fluorophenyl)-6-cyano-5-cyclopropyl-1-(4-fluorophenyl)-2-oxo-1,2-dihydro-pyridine-3-carboxamide]
IC50 [1]: 9.8 nM | IC50 [3]: 143 nM

SMILES: COCc1c(C)cc(C(=O)Nc2ccc(Oc3ccnc4cc(OC)c(OC)cc34)c(F)c2)c(=O)n1-c1ccc(F)cc1 [Example 28, 5-methyl-N-(4-((6,7-dimethoxyquinolin-4-yl)oxy)-3-fluoro-phenyl)-1-(4-fluorophenyl)-6-(methoxymethyl)-2-oxo-1,2-dihydropyridine-3-carboxamide]
IC50 [1]: 1 nM | IC50 [3]: 21 nM

SMILES: COc1cc2nccc(Oc3ccc(NC(=O)c4cc(Br)c(O)n(-c5ccc(F)cc5)c4=O)cc3F)c2cc1OC [Example 29B, 5-bromo-N-(4-((6,7-dimethoxyquinolin-4-yl)oxy)-3-fluorophenyl)-1-(4-fluorophenyl)-6-hydroxy-2-oxo-1,2-dihydropyridine-3-carboxamide]
IC50 [1]: 3.9 nM | IC50 [3]: 30 nM

SMILES: COc1cc2nccc(Oc3ccc(NC(=O)c4cn(C(C)C)c(C#N)c(-c5ccc(F)cc5)c4=O)cc3F)c2cc1C#N [Example 25, 6-cyano-N-(4-((6-cyano-7-methoxyquinolin-4-yl)oxy)-3-fluoro-phenyl)-5-(4-fluorophenyl)-1-isopropyl-4-oxo-1,4-dihydropyridine-3-carboxamide]
IC50 [2]: 115 nM

SMILES: COc1cc2nccc(Oc3ccc(NC(=O)c4cn(C5CCC5)c(C#N)c(-c5ccc(F)cc5)c4=O)cc3F)c2cc1OC [Example 23, 6-cyano-N-(4-((6,7-dimethoxyquinolin-4-yl)oxy)-3-fluoro-phenyl)-5-(4-fluorophenyl)-1-cyclobutyl-4-oxo-1,4-dihydropyridine-3-carboxamide]
IC50 [2]: 74 nM

Continued, in another order:

IC50 [1]: 12 nM | IC50 [3]: 12 nM
SMILES: CCn1cc(-c2cnc(N)c(-c3ccc(NC(=O)c4cc(C)c(C#N)n(-c5ccc(F)cc5)c4=O)cc3F)c2)cn1 [Example 18, N-(4-(2-amino-5-(1-ethyl-1H-pyrazol-4-yl)pyridin-3-yl)-3-fluorophenyl)-6-cyano-1-(4-fluorophenyl)-5-methyl-2-oxo-1,2-dihydropyridine-3-carboxamide]
IC50 [2]: 298 nM

IC50 [1]: 12 nM | IC50 [3]: 82 nM
SMILES: CCn1cc(-c2cnc(N)c(-c3ccc(NC(=O)c4cc(C5CC5)c(C#N)n(-c5ccc(F)cc5)c4=O)cc3F)c2)cn1 [Example 14, N-(4-(2-amino-5-(1-ethyl-1H-pyrazol-4-yl)pyridin-3-yl)-3-fluorophenyl)-6-cyano-5-cyclopropyl-1-(4-fluorophenyl)-2-oxo-1,2-dihydropyridine-3-carboxamide]

IC50 [1]: 0.95 nM | IC50 [3]: 10 nM
SMILES: N#Cc1c(-c2ccc(F)cc2)c(=O)c(C(=O)Nc2ccc(-c3cc(-c4cnn(C5CCNCC5)c4)cnc3N)c(F)c2)cn1C1CC1 [Example 11, N-(4-(2-amino-5-(1-(piperidin-4-yl)-1H-pyrazol-4-yl)pyridin-3-yl)-3-fluorophenyl)-6-cyano-5-(4-fluorophenyl)-1-cyclopropyl-4-oxo-1,4-dihydropyridine-3-carboxamide]
IC50 [2]: 91 nM

IC50 [1]: 6.6 nM | IC50 [3]: 20 nM
SMILES: Cn1cc(-c2cnc(N)c(-c3ccc(NC(=O)c4cc(C5CC5)c(C#N)n(-c5ccc(F)cc5)c4=O)cc3F)c2)cn1 [Example 15, N-(4-(2-amino-5-(1-methyl-1H-pyrazol-4-yl)pyridin-3-yl)-3-fluorophenyl)-6-cyano-5-cyclopropyl-1-(4-fluorophenyl)-2-oxo-1,2-dihydropyridine-3-carboxamide]
IC50 [2]: 190 nM

IC50 [1]: 1.1 nM | IC50 [3]: 17 nM
SMILES: N#Cc1c(-c2ccc(F)cc2)c(=O)c(C(=O)Nc2ccc(-c3cc(-c4cnn(C5CCNCC5)c4)cnc3N)c(F)c2)cn1C1CCC1 [Example 8, N-(4-(2-amino-5-(1-(piperidin-4-yl)-1H-pyrazol-4-yl)pyridin-3-yl)-3-fluorophenyl)-6-cyano-5-(4-fluorophenyl)-1-cyclobutyl-4-oxo-1,4-dihydropyridine-3-carboxamide]

IC50 [1]: 1.8 nM | IC50 [3]: 23 nM
SMILES: C=C(C)c1cc(C(=O)Nc2ccc(-c3cc(-c4cnn(C5CCNCC5)c4)cnc3N)c(F)c2)c(=O)n(-c2ccc(F)cc2)c1C#N [Example 17, N-(4-(2-amino-5-(1-(piperidin-4-yl)-1H-pyrazol-4-yl)pyridin-3-yl)-3-fluorophenyl)-6-cyano-1-(4-fluorophenyl)-2-oxo-5-(prop-1-en-2-yl)-1,2-dihydropyridine-3-carboxamide]

IC50 [1]: 5.9 nM
SMILES: COc1cc2nccc(Oc3ccc(NC(=O)c4cn(C5CC5)c(C#N)c(-c5ccc(F)cc5)c4=O)cc3F)c2cc1OC [Example 22, 6-cyano-N-(4-((6,7-dimethoxyquinolin-4-yl)oxy)-3-fluoro-phenyl)-5-(4-fluorophenyl)-1-cyclopropyl-4-oxo-1,4-dihydropyridine-3-carboxamide]
IC50 [2]: 84 nM

Source: patent US20210355107A1, “MULTI-SUBSTITUTED PYRIDONE DERIVATIVES AND MEDICAL USE THEREOF” (Beijing Yuezhikangtai Biomedicines Co., Ltd., priority 2018, published 2021)
